Experimental findings from patent US11812774B2, “Composition for browning inhibition and use of same” (SUNTORY HOLDINGS LIMITED, priority 2016, dated 2023) are described below.

The procedure of data set [1]: A sample solution was prepared by dissolving a candidate substance in water to adjust the total phenol amount derived from the candidate substance to 600 ppm. The total phenol amount was measured by the Folin-Denis method, using gallic acid as a standard substance.
Data set [2] can be described thus: Aldehyde-scavenging substance screening (Br value and Xt value, 96-well microplate). The conditions noted are these: sample solution 600 ppm total phenol; epicatechin + glyoxal; 70° C., 16 hours; Br and Xt values relative to negative control; N=3. As for the experimental part: Aldehyde-scavenging ability of a candidate substance was evaluated based on how much the candidate substance added to a mixture of glyoxal (model aldehyde) and epicatechin (reaction substrate) can inhibit browning. The negative control was distilled water. As positive control, fractions 6, 7, and 8 (mixtures containing baicalin and baicalin glycosides (compounds containing one to three glucose molecules bonded to a sugar moiety of baicalin)) obtained in Preparation 1 were used.
A glyoxal aqueous solution (39% (v/v)) and epicatechin were used as reagents. […]
Accelerated aging was performed at 70° C. for 16 hours, and the area under the spectrum at 400 to 600 nm and the absorbance at 487 nm were measured.
The amount of change in the visible absorbance before and after accelerated aging was calculated. […] The Br value indicates the amount of change Δ in the area under the spectrum at 400 to 600 nm, and the Xt value indicates the amount of change Δ in the absorbance at 487 nm. […] In FIG. 14, the solid line indicates the absorbance when a substance having an aldehyde-scavenging effect (a substance having a browning-inhibiting effect) was added, and the dashed line indicates the absorbance of the negative control. […]

A short description of data set [3]: LC-MS analysis of accelerated-aged mixture of baicalin and glyoxal. The conditions noted are these: baicalin 0.5 g/L + glyoxal 0.01 g/L, condition 3 (oxygen aeration, 123° C., 30 min). The protocol:
A mixture (green tea model) of epicatechin (EC) (0.5 g/L) and glyoxal (0.01 g/L) was accelerated-aged under condition 3 (after oxygen aeration, stored at 123° C. for 30 minutes) in Test Example 2, and analyzed by LC-MS under the following conditions. • LC-MS measurement conditions • LC • Column: 2.5 Cholester (Nacalai Tesque, Inc.) (100 mmL.×2.0 I.D.) • Mobile phase: • A: 0.1% formic acid/H2O • B: 0.1% formic acid/CH3CN • Gradient elution method • Time program (concentration of B solution is expressed in percent by volume): B 5% (0-0.5 min)→B 32% (20 min)→B 100% (25-27.5 min)→B 5% (27.51-30 min) • Flow rate: 0.25 mL/min • Column temperature: 40° C. • Sample injection volume: 2 μL • MS • Probe voltage: +4.5 kV (ESI positive mode) • −3.5 kV (ESI negative mode) • Nebulizer gas flow rate: 1.5 L/min • Drying gas flow rate: 20 L/min • DL temperature: 250° C. • DL voltage/Q-array voltage: default value • SCAN: m/z 100-800 (positive, negative) • SIM: A mixture of baicalin (0.5 g/L) and glyoxal (0.01 g/L) was accelerated-aged under condition 3 (after oxygen aeration, stored at 30 min at 123° C.) of Test Example 2, and analyzed by LC-MS. LC-MS measurement conditions are the same as those in Test Example 5. […]

Data set [4] can be described thus: Accelerated aging of epicatechin/glyoxal model solution, change in visible absorption spectrum. The conditions noted are these: baicalin 0.5 g/L added to epicatechin 0.5 g/L + glyoxal 0.01 g/L; condition 3 (oxygen aeration, 123° C., 30 minutes); compared to no baicalin. As for the experimental part: The preparation prepared above was subjected to an aging test under the following conditions, and then the visible absorption spectrum was measured. Condition 1: purged with nitrogen, stored at 4° C. for one hour Condition 2: stored at 121° C. for […] Condition 3: after oxygen aeration, stored at 123° C. for 30 minutes Baicalin (0.5 g/L) was added to a model solution obtained by mixing epicatechin (0.5 g/L) with glyoxal (0.01 g/L). The mixture was accelerated-aged under condition 3 (after oxygen aeration, stored at 123° C. for 30 minutes) in Test Example 2, and the amount of change in the visible absorption spectrum (ΔABU) before and after accelerated aging was calculated. FIG. 9 is a diagram showing changes in a visible absorption spectrum of the model solution by addition of baicalin.

A short description of data set [5]: Accelerated aging of baicalin/epicatechin/glyoxal mixtures, visible absorption spectrum and residual catechin by LC-MS. The conditions noted are these: 15 minutes. As for the experimental part:
The following three kinds of solutions were prepared. B+G: a mixture of baicalin (0.5 g/L) and glyoxal (0.01 g/L) B+C+G: a mixture of baicalin (0.5 g/L), epicatechin (0.5 g/L), and glyoxal (0.01 g/L) C+G: a mixture of epicatechin (0.5 g/L) and glyoxal (0.01 g/L)
These solutions were kept in an autoclave at 121° C. for 15 minutes for accelerated aging. After accelerated aging, changes in color were checked by visual observation, and further, the visible absorption spectrum was measured.
FIG. 10(a) is a picture showing the appearance of the mixture of baicalin and glyoxal (B+G), the mixture of baicalin, epicatechin, and glyoxal (B+C+G), and the mixture of epicatechin and glyoxal (C+G) after accelerated aging; and FIG. 10(b) is a diagram showing visible absorption spectra of the same (FIG. 10(a): picture, (b): visible absorption spectra). In FIG. 10(b), the solid line indicates the mixture (B+G), the dashed line indicates the mixture (B+C+G), and the long dashed dotted line indicates the mixture (C+G).
Further, after accelerated aging, the amount of epicatechin (the amount of a residual catechin) in the mixture (B+C+G) and the mixture (C+G) was measured by LC-MS under the same conditions as in Test Example 3.

As to `COc1ccc(-c2oc3c(CC=C(C)C)c(O[C@@H]4O[C@H](CO)[C@@H](O)[C@H](O)[C@H]4O)cc(O)c3c(=O)c2O[C@@H]2O[C@@H](C)[C@H](O)[C@@H](O)[C@H]2O)cc1` [icariin], the water solubility result in data set [1] is “poor water solubility”. The aldehyde-scavenging ability entry in data set [2] was “confirmed”.

On to `O=C(O)[C@H]1O[C@@H](Oc2cc3oc(-c4ccccc4)cc(=O)c3c(O)c2O)[C@H](O)[C@@H](O)[C@@H]1O` [baicalin], for which the “production of compound having a xanthylium structure (brown) by reaction with glyoxal” value in data set [3] was “No compound having a xanthylium structure that exhibits brown was detected”. Also, the “amount of change in the visible absorption spectrum (ΔABU) before and after accelerated aging” value in data set [4] is recorded as “significantly reduced”. Further, the “absorption at 487 nm after accelerated aging” value in data set [5] (B+C+G (baicalin 0.5 g/L, epicatechin 0.5 g/L, glyoxal 0.01 g/L) vs C+G, autoclave 121° C.) is given as “significantly reduces”. Besides, the “amount of the residual catechin in a solution after accelerated aging” value in data set [5] (B+C+G vs C+G, 121° C., epicatechin by LC-MS) is on record as “increases”.

For the molecule `O=C(O)[C@H]1O[C@@H](Oc2cc3oc(-c4ccc(O)cc4)cc(=O)c3c(O)c2O)[C@H](O)[C@@H](O)[C@@H]1O` [scutellarin], the aldehyde-scavenging ability result in data set [2] was “confirmed”.
